Patent US20110039762A1, “TARGETED ANTIMICROBIAL MOIETIES” (C3 JIAN, INC., priority 2009, published 2011)
Entries after “also recorded” stand apart in the source; their conditions may differ. Ends that are not written are not given here.

Tests used:
[1] = test system: microorganisms; assay: Peptides having multiple activities (targeting/binding, antimicrobial, growth or phenotype altering)
Description: In certain embodiments, peptides described herein can have multiple activities. Thus for example, a peptide can have both binding/targeting activity and antimicrobial activity. Such peptides can be used, e.g., in a chimeric construct, for any or all of these properties. Thus, for example, a peptide designated “B” in Table 8 can be used as a targeting peptide. If it is also designated G or M it can also be used for antimicrobial activity.

[2] = test system: microorganisms (e.g., bacteria, yeasts, fungi); assay: Targeting peptide binding to target microorganisms (Table 3); conditions: preferably 1x PBS; for Target(s): microorganism(s) the targeting peptide binds, peptide binding conducted in aqueous buffers varied by peptide solubility; for Target(s) (microorganisms bound by the targeting peptide): peptide binding in aqueous buffers varied by peptide solubility
[3] = test system: S. pneumoniae; assay: MIC (broth microdilution); type: cell-based, Streptococcus pneumoniae
Method: (§1) Typically, the in vitro antimicrobial activity of antimicrobial agents is tested using standard NCCLS bacterial inhibition assays, or MIC tests (see, National Committee on Clinical Laboratory Standards “Performance Standards for Antimicrobial Susceptibility Testing,” NCCLS Document M100-S5 Vol. 14, No. 16, December 1994; “Methods for dilution antimicrobial susceptibility test for bacteria that grow aerobically-Third Edition,” Approved Standard M7-A3, National Committee for Clinical Standards, Villanova, Pa.).
(§2) Briefly, ˜1×10^5 cfu/mL bacteria were diluted in TH (S. mutans), or Mueller-Hinton (MH) broth (all other organisms) and distributed to 96-well plates. Serially-diluted (2-fold) peptides were then added and the plates incubated at 37° C. for 18-24 h. […] All experiments were conducted 10 times.

[4] = test system: S. pneumoniae; assay: Kill or inhibit growth/proliferation; morphology, biofilm and growth disruption (Tables 5, 6); type: cell-based, Streptococcus pneumoniae; set-up: key: A: Peptide aggregates; B: Less hyphal formation; Clumps; Diffuse clumps and small polyps; F: Diffuse growth; H: Thin; I: Growth inhibition; Microcolony formation; Rippled; Small polyps; Thick; W: Halo formation on top, microlonies on bottom; note: test concentration or dose not given here
[5] = test system: S. epidermidis; assay: as above; type: cell-based, Staphylococcus epidermidis; set-up: key: A: Peptide aggregates; B: Less hyphal formation; Clumps; Diffuse clumps and small polyps; F: Diffuse growth; H: Thin; I: Growth inhibition; Microcolony formation; Rippled; Small polyps; Thick; W: Halo formation on top, microlonies on bottom; note: test concentration or dose not given here
[6] = test system: B. subtilis; assay: as above; type: cell-based, Bacillus subtilis; set-up: key: A: Peptide aggregates; B: Less hyphal formation; Clumps; Diffuse clumps and small polyps; F: Diffuse growth; H: Thin; I: Growth inhibition; Microcolony formation; Rippled; Small polyps; Thick; W: Halo formation on top, microlonies on bottom
[7] = test system: B. subtilis; assay: MIC (broth microdilution); type: cell-based, Bacillus subtilis
Method: as §1, §2

[8] = test system: A. niger; assay: MIC (broth microdilution); type: cell-based, Aspergillus niger
Method: as §1, §2

[9] = test system: E. coli; assay: Kill or inhibit growth/proliferation; morphology, biofilm and growth disruption (Tables 5, 6); type: cell-based, Escherichia coli; set-up: key: A: Peptide aggregates; B: Less hyphal formation; Clumps; Diffuse clumps and small polyps; F: Diffuse growth; H: Thin; I: Growth inhibition; Microcolony formation; Rippled; Small polyps; Thick; W: Halo formation on top, microlonies on bottom; note: test concentration or dose not given here
[10] = test system: MRSA; assay: as above; type: cell-based, Methicillin-resistant Staphylococcus aureus; set-up: key: A: Peptide aggregates; B: Less hyphal formation; Clumps; Diffuse clumps and small polyps; F: Diffuse growth; H: Thin; I: Growth inhibition; Microcolony formation; Rippled; Small polyps; Thick; W: Halo formation on top, microlonies on bottom; note: test concentration or dose not given here
[11] = test system: E. faecalis; assay: as above; type: cell-based, Enterococcus faecalis; set-up: key: A: Peptide aggregates; B: Less hyphal formation; Clumps; Diffuse clumps and small polyps; F: Diffuse growth; H: Thin; I: Growth inhibition; Microcolony formation; Rippled; Small polyps; Thick; W: Halo formation on top, microlonies on bottom; note: test concentration or dose not given here
[12] = test system: S. mutans; assay: as above; type: cell-based, Streptococcus mutans; set-up: key: A: Peptide aggregates; B: Less hyphal formation; Clumps; Diffuse clumps and small polyps; F: Diffuse growth; H: Thin; I: Growth inhibition; Microcolony formation; Rippled; Small polyps; Thick; W: Halo formation on top, microlonies on bottom; note: test concentration or dose not given here
[13] = test system: F. nucleatum; assay: as above; type: cell-based, Fusobacterium nucleatum; set-up: key: A: Peptide aggregates; B: Less hyphal formation; Clumps; Diffuse clumps and small polyps; F: Diffuse growth; H: Thin; I: Growth inhibition; Microcolony formation; Rippled; Small polyps; Thick; W: Halo formation on top, microlonies on bottom; note: test concentration or dose not given here
[14] = test system: C. jeikeium; assay: as above; type: cell-based, Corynebacterium jeikeium; set-up: key: A: Peptide aggregates; B: Less hyphal formation; Clumps; Diffuse clumps and small polyps; F: Diffuse growth; H: Thin; I: Growth inhibition; Microcolony formation; Rippled; Small polyps; Thick; W: Halo formation on top, microlonies on bottom; note: test concentration or dose not given here
[15] = test system: C. jejuni; assay: as above; type: cell-based, Campylobacter jejuni; set-up: key: A: Peptide aggregates; B: Less hyphal formation; Clumps; Diffuse clumps and small polyps; F: Diffuse growth; H: Thin; I: Growth inhibition; Microcolony formation; Rippled; Small polyps; Thick; W: Halo formation on top, microlonies on bottom; note: test concentration or dose not given here
[16] = test system: C. albicans; assay: as above; type: cell-based, Candida albicans; set-up: key: A: Peptide aggregates; B: Less hyphal formation; Clumps; Diffuse clumps and small polyps; F: Diffuse growth; H: Thin; I: Growth inhibition; Microcolony formation; Rippled; Small polyps; Thick; W: Halo formation on top, microlonies on bottom; note: test concentration or dose not given here
[17] = test system: M. luteus; assay: as above; type: cell-based, Micrococcus luteus; set-up: key: A: Peptide aggregates; B: Less hyphal formation; Clumps; Diffuse clumps and small polyps; F: Diffuse growth; H: Thin; I: Growth inhibition; Microcolony formation; Rippled; Small polyps; Thick; W: Halo formation on top, microlonies on bottom; note: test concentration or dose not given here
Throughout, for Organism, effect: test concentration or dose not given here.

Substance	Activities [1]	Target(s) [2]	MIC [3]	Organism, effect [4]	Organism, effect (morphology, biofilm and growth disruption) [13]	Target(s) (microorganisms bound by the targeting peptide) [2]	further results
ASKQASKQASKQASKQASKQASRSLKNHLL [PF-523]	B M	S. epidermidis; also recorded: M. luteus; also recorded: C. albicans; also recorded: S. pneumoniae; also recorded: C. jeikeium; also recorded: C. jejuni	S. pneumoniae, 50 μM				
CGKLLEQKNFFLKTR [PF-521]	G B M	S. epidermidis; also recorded: E. coli; also recorded: P. aeruginosa; also recorded: S. pneumoniae; also recorded: E. faecalis	S. pneumoniae, 50 μM	S. pneumoniae (H)			
FQKPFTGEEVEDFQDDDEIPTII [PF-437]	G M		S. pneumoniae, 50 μM	S. pneumoniae (I)			
GIVLIGLKLIPLLANVLR [PF-322]	G M						Organism, effect [5]: S. epidermidis (C); Organism, effect [6]: B. subtilis (H); MIC [7]: B. subtilis, 50 μM
KFSDQIDKGQDALKDKLGDL [PF-525]	G M		S. pneumoniae, 50 μM	S. pneumoniae (H)			MIC [8]: A. niger, 50 μM
LGLTAGVAYAAQPTNQPTNQPTNQPTNQPTNQPTNQPRW-NH2 [PF-520]	G B M		S. pneumoniae, 50 μM	S. pneumoniae (M)			
LVLRICTDLFTFIKWTIKQRKS [PF-497]	B M	S. mutans; also recorded: B. subtilis; also recorded: E. coli					MIC [7]: B. subtilis, 50 μM
PDAPRTCYHKPILAALSRIVVTDR [PF-524]	G B M	S. epidermidis and E. coli and P. aeruginosa and C. albicans and MRSA and S. pneumoniae and E. faecalis and C. jeikeium	S. pneumoniae, 50 μM	S. pneumoniae (M)			Organism, effect [9]: E. coli (M); Organism, effect [10]: MRSA (C); Organism, effect [11]: E. faecalis (C)
PF-C055: peptide having multiple activities (YNLSIYIYFLHTITIAGLITLPFII; Peptide with targeting and/or antimicrobial activity)	G B				F. nucleatum (T)	A. naeslundii; also recorded: F. nucleatum; also recorded: P. gingivalis; also recorded: S. mutans	Organism, effect (morphology, biofilm and growth disruption) [12]: S. mutans (I)
PF-C062: peptide having multiple activities (PLARATEVVATLFIICSLLLYLTR; Peptide with targeting and/or antimicrobial activity)	G B				F. nucleatum (T)	A. naeslundii; also recorded: F. nucleatum; also recorded: P. gingivalis; also recorded: S. mutans; also recorded: T. denticola	Organism, effect (morphology, biofilm and growth disruption) [12]: S. mutans (I)
PF-C131: peptide having multiple activities (QWIVAKREIRMHIYCHISVIHVIIFFG; Peptide with targeting and/or antimicrobial activity)	G B				F. nucleatum (T)	A. naeslundii; also recorded: F. nucleatum; also recorded: P. gingivalis; also recorded: S. mutans	Organism, effect (morphology, biofilm and growth disruption) [12]: S. mutans (F)
PF-C143: peptide having multiple activities (VVFGGGDRLV; Peptide with targeting and/or antimicrobial activity)	G B				F. nucleatum (C)	A. naeslundii; also recorded: F. nucleatum; also recorded: P. gingivalis; also recorded: S. mutans; also recorded: T. denticola	
PF-C145: peptide having multiple activities (YGKESDP; Peptide with targeting and/or antimicrobial activity)	G B				F. nucleatum (C)	A. naeslundii; also recorded: F. nucleatum; also recorded: P. gingivalis; also recorded: S. mutans; also recorded: T. denticola	Organism, effect (morphology, biofilm and growth disruption) [12]: S. mutans (I)
PF-C181: peptide having multiple activities (KMRAGQVVFIYKLILVLLFYVLQKLFDLKKGCF; Peptide with targeting and/or antimicrobial activity)	G B				F. nucleatum (T)	P. gingivalis	
PF-C291: peptide having multiple activities (HPFLTGTGCPLFLIFRLFFVKAYFSFTVF; Peptide with targeting and/or antimicrobial activity)	G B				F. nucleatum (T)	A. naeslundii; also recorded: F. nucleatum; also recorded: P. gingivalis; also recorded: S. mutans	Organism, effect (morphology, biofilm and growth disruption) [12]: S. mutans (F)
RRGCTERLRRMARRNAWDLYAEHFY [PF-148]	G B M			S. pneumoniae (R)			Organism, effect [5]: S. epidermidis (D); Organism, effect [6]: B. subtilis (I); Organism, effect [14]: C. jeikeium (H); MIC [7]: B. subtilis, 50 μM; Organism, effect [10]: MRSA (C); Organism, effect [15]: C. jejuni (H); Organism, effect [16]: C. albicans (B); Organism, effect [17]: M. luteus (A); MIC [8]: A. niger, 50 μM
SFMPEIQKNTIPTQMK [PF-512]	G B M	S. pneumoniae; also recorded: C. jeikeium	S. pneumoniae, 50 μM	S. pneumoniae (H)			
VMQSLYVKPPLILVTKLAQQN [PF-511]	G B M	E. coli; also recorded: P. aeruginosa; also recorded: S. pneumoniae; also recorded: C. jeikeium	S. pneumoniae, 50 μM	S. pneumoniae (H)			
VYSFLYVLVIVRKLLSMKKRIERL [PF-499]	B M	S. mutans; also recorded: E. coli					MIC [7]: B. subtilis, 50 μM
